In patent publication USRE47689E1, “Compounds for treating spinal muscular atrophy” (PTC Therapeutics, Inc., priority 2011, dated 2019):
Where two headings read alike, the source gives them in different places.

Experiments:
[1] = test system: SMN2 minigene (full length SMN2 minigene mRNA containing SMN2 exon 7); test: SMN2 minigene mRNA splicing RT-qPCR assay in cultured cells; assay type: cell-based, human; details: Homo sapiens, HEK293-H, read-out: EC1.5x for production of full length SMN2 mRNA
In short: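 Full-length SMN2 minigene mRNA (exon 7 included), minigene-specific and not endogenous SMN, quantified by RT-qPCR multiplexed with GAPDH in stably transfected HEK293H cells after 24 h compound exposure at 37° C. Abundance from efficiency-corrected Ct, normalized to GAPDH and vehicle; EC1.5x reported as star bins.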

Smn protein = Smn protein assay in cultured cells (SMN HTRF); assay type: cell-based, human; details: 48 hours; for maximum fold (Fold) increase of Smn protein: SMA patient fibroblast cells, 7-point concentration data, fold increase relative to vehicle control (SMN HTRF)
In short: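 Smn in SMA fibroblast lysates, measured by anti-SMN HTRF after 48 h compound exposure; EC1.5x from fold change over vehicle.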

[2] = HEK293H cells stably transfected with SMN2-A minigene, 24 hours, 7-point concentration curve, 1.5-fold relative to vehicle-treated cells

| SMILES | EC (1.5-fold) [1, 2] | melting point | maximum fold (Fold) increase of Smn protein (Smn protein) | EC1.5x (concentration giving 1.5-fold Smn protein increase) (Smn protein; SMA Type 1 patient fibroblast cells (GM03813), 7-point concentration curve, SMN HTRF, concentration producing 1.5 times Smn protein vs DMSO vehicle control, read-out: EC1.5x for Smn protein expression) | EC (1.5-fold) ([1]; 24 h) |
| --- | --- | --- | --- | --- | --- |
| Cc1cc(Cl)cn2cc(-c3cc4ccc(N5CCNCC5)cc4oc3=O)nc12 [Compound 263, 3-(6-chloro-8-methylimidazo[1,2-a]pyridin-2-yl)-7-(piperazin-1-yl)-2H-chromen-2-one] | 3 to 30 µM | 224 to 233 °C | * (maximum fold increase of ≤1.2) |  |  |
| Cc1cc(Cl)cn2cc(-c3cc4ccc(N5CCN(C)CC5)cc4oc3=O)nc12 [Compound 264, 3-(6-chloro-8-methylimidazo[1,2-a]pyridin-2-yl)-7-(4-methylpiperazin-1-yl)-2H-chromen-2-one] | 1 to 3 µM | 238 °C | * (maximum fold increase of ≤1.2) |  |  |
| Cc1cc(Cl)cn2cc(-c3cc4ccc(N5C[C@@H](C)N[C@@H](C)C5)cc4oc3=O)nc12 [Compound 265, 3-(6-chloro-8-methylimidazo[1,2-a]pyridin-2-yl)-7-[(3R,5S)-3,5-dimethylpiperazin-1-yl]-2H-chromen-2-one] | 1 to 3 µM | 271 to 281 °C | * (maximum fold increase of ≤1.2) |  |  |
| O=c1oc2cc(N3C[C@@H]4C[C@H]3CN4)ccc2cc1-c1nc(C(F)(F)F)cs1 [Compound 266, 7-[(1S,4S)-2,5-diazabicyclo[2.2.1]hept-2-yl]-3-[4-(trifluoromethyl)-1,3-thiazol-2-yl]-2H-chromen-2-one] | 1 to 3 µM | 211 to 220 °C | * (maximum fold increase of ≤1.2) |  |  |
| C[C@@H]1CN(c2ccc3cc(-c4cn5ccc(C(F)(F)F)cc5n4)c(=O)oc3c2)CCN1 [Compound 267, 7-[(3R)-3-methylpiperazin-1-yl]-3-[7-(trifluoromethyl)imidazo[1,2-a]pyridin-2-yl]-2H-chromen-2-one] | 1 to 3 µM | 252 to 260 °C | * (maximum fold increase of ≤1.2) |  |  |
| C[C@H]1CN(c2ccc3cc(-c4cn5ccc(C(F)(F)F)cc5n4)c(=O)oc3c2)CCN1 [Compound 268, 7-[(3S)-3-methylpiperazin-1-yl]-3-[7-(trifluoromethyl)imidazo[1,2-a]pyridin-2-yl]-2H-chromen-2-one] | 0.3 to 1 µM | 252 to 260 °C | * (maximum fold increase of ≤1.2) |  |  |
| CC1(C)CN(c2ccc3cc(-c4cn5ccc(C(F)(F)F)cc5n4)c(=O)oc3c2)CCN1 [Compound 269, 7-(3,3-dimethylpiperazin-1-yl)-3-[7-(trifluoromethyl)imidazo[1,2-a]pyridin-2-yl]-2H-chromen-2-one] | 1 to 3 µM | 221 to 227 °C | * (maximum fold increase of ≤1.2) |  |  |
| CC(CO)NCc1ccc2cc(-c3nc4c(Cl)cccc4s3)c(=O)oc2c1 (stereo not shown) [Compound 270, 3-(4-chloro-1,3-benzothiazol-2-yl)-7-{[(1-hydroxypropan-2-yl)amino]methyl}-2H-chromen-2-one] | 1 to 3 µM | 186 to 190 °C | ** (fold increase between >1.2 and ≤1.35) |  |  |
| CN(CCO)Cc1ccc2cc(-c3nc4c(Cl)cccc4s3)c(=O)oc2c1 [Compound 271, 3-(4-chloro-1,3-benzothiazol-2-yl)-7-{[(2-hydroxyethyl)(methyl)amino]methyl}-2H-chromen-2-one] | 1 to 3 µM | 193 to 196 °C | **** (fold increase between >1.5 and ≤1.65) | 3 to 10 µM |  |
| O=c1oc2cc(CN3CCC(O)C3)ccc2cc1-c1nc2c(Cl)cccc2s1 (stereo not shown) [Compound 272, 3-(4-chloro-1,3-benzothiazol-2-yl)-7-[(3-hydroxypyrrolidin-1-yl)methyl]-2H-chromen-2-one] | 1 to 3 µM | 188 to 192 °C | ** (fold increase between >1.2 and ≤1.35) |  |  |
| O=c1oc2cc(N3CCCNCC3)ccc2cc1-c1cn2ccc(C(F)(F)F)cc2n1 [Compound 275, 7-(1,4-diazepan-1-yl)-3-[7-(trifluoromethyl)imidazo[1,2-a]pyridin-2-yl]-2H-chromen-2-one] | 0.3 to 1 µM | 253 to 262 °C | * (maximum fold increase of ≤1.2) |  |  |
| CN1CCCN(c2ccc3cc(-c4cn5ccc(C(F)(F)F)cc5n4)c(=O)oc3c2)CC1 [Compound 276, 7-(4-methyl-1,4-diazepan-1-yl)-3-[7-(trifluoromethyl)imidazo[1,2-a]pyridin-2-yl]-2H-chromen-2-one] | 0.3 to 1 µM | 244 to 249 °C | * (maximum fold increase of ≤1.2) |  |  |
| C[C@@H]1CN[C@@H](C)CN1c1ccc2cc(-c3cn4ccc(C(F)(F)F)cc4n3)c(=O)oc2c1 [Compound 277, 7-[(2R,5S)-2,5-dimethylpiperazin-1-yl]-3-[7-(trifluoromethyl)imidazo[1,2-a]pyridin-2-yl]-2H-chromen-2-one] | 0.3 to 1 µM | 213 to 219 °C | * (maximum fold increase of ≤1.2) |  |  |
| CN1CCCN(c2ccc3cc(-c4cn5cccc(Cl)c5n4)c(=O)oc3c2)CC1 [Compound 280, 3-(8-chloroimidazo[1,2-a]pyridin-2-yl)-7-(4-methyl-1,4-diazepan-1-yl)-2H-chromen-2-one] | 0.1 to 0.3 µM | 161 to 163 °C | *** (fold increase between >1.35 and ≤1.5) |  |  |
| Cc1cccn2cc(-c3cc4ccc(N5CCCNCC5)cc4oc3=O)nc12 [Compound 281, 7-(1,4-diazepan-1-yl)-3-(8-methylimidazo[1,2-a]pyridin-2-yl)-2H-chromen-2-one] | 0.3 to 1 µM | 138 to 140 °C | ** (fold increase between >1.2 and ≤1.35) |  |  |
| Cc1ccc2nc(-c3cc4ccc(N(C)C5CCN(C)CC5)cc4oc3=O)cn2c1 [Compound 282, 3-(6-methylimidazo[1,2-a]pyridin-2-yl)-7-[methyl(1-methylpiperidin-4-yl)amino]-2H-chromen-2-one] |  | 181 to 184 °C | * (maximum fold increase of ≤1.2) |  | 1 to 3 µM |
| Cc1csc(-c2cc3ccc(N4CCCNCC4)cc3oc2=O)n1 [Compound 284, 7-(1,4-diazepan-1-yl)-3-(4-methyl-1,3-thiazol-2-yl)-2H-chromen-2-one] | 1 to 3 µM | 195 to 203 °C | * (maximum fold increase of ≤1.2) |  |  |
| Cc1csc(-c2cc3ccc(N4CCCN(C)CC4)cc3oc2=O)n1 [Compound 285, 7-(4-methyl-1,4-diazepan-1-yl)-3-(4-methyl-1,3-thiazol-2-yl)-2H-chromen-2-one] | 1 to 3 µM | 190 to 200 °C | * (maximum fold increase of ≤1.2) |  |  |
| Cc1csc(-c2cc3ccc(N4C[C@@H](C)N[C@@H](C)C4)cc3oc2=O)n1 [Compound 286, 7-[(3R,5S)-3,5-dimethylpiperazin-1-yl]-3-(4-methyl-1,3-thiazol-2-yl)-2H-chromen-2-one] | 1 to 3 µM | 178 to 183 °C | * (maximum fold increase of ≤1.2) |  |  |
